Reference: US12083196B2, “Personal cleansing compositions with surfactants for increased foam performance” (ECOLAB USA INC., priority 2020, dated 2024)

Experiments:
[1] = system: Candida albicans (ATCC 10231), Saccharomyces cerevisiae (ATCC 834), Aspergillus niger (ATCC 16404); experiment: Preservative test, yeast and mold inoculum; assay type: cell-based; conditions: Lathanol LAL in preserved compositions
Description: (§1) The 7 different compositions in Table 4 were tested for their preservative ability, with composition 11 being a negative control as it lacks either phenoxyethanol or benzoic acid. To test the compositions, a bacterial inoculum and a yeast and mold inoculum were created. The bacterial inoculum comprised of equal parts of Staphylococcus aureus (ATCC 6538), Escherichia coli (ATCC 11229), Enterobacter aerogenes (ATCC 13048), Burkholderia cepacian (ATCC 25416), and Pseudomonas aeruginosa (ATCC 15442). The yeast and mold inoculum comprised of equal parts of Candida albicans (ATCC 10231), Saccharomyces cerevisiae (ATCC 834), and Aspergillus niger (ATCC 16404).
(§2) The inoculates were incubated for 3 days with the bacterial inoculum at 32° C. and the yeast and mold inoculum at 26° C. The preservative compositions were added, and samples measured at 7, 14, 21, and 28 days. A sample passed if no bacteria or yeast and mod survived after Day 7, conditionally passed if there was a greater than 2.0 log reduction on day 7 when compared to day 3, with no additional growth on days 14, 21, or 28 for the bacterial samples, and if there was not more than a 0.5 log increase from the initial inoculated count at days 14 and 28 for the yeast and mold samples. The results are summarized in Table 5 for bacterial samples and Table 6 for yeast and mold.

[2] = system: Staphylococcus aureus (ATCC 6538), Escherichia coli (ATCC 11229), Enterobacter aerogenes (ATCC 13048), Burkholderia cepacian (ATCC 25416), Pseudomonas …; experiment: Preservative test, bacterial inoculum; assay type: cell-based; conditions: Lathanol LAL in preserved compositions
Description: as §1, §2

[3] = SITA Foam Analyzer foam creation; assay type: physicochemical; conditions: single surfactant, 1%, FIG. 1
Text: The reagents used below include: • Alpha-Step® PC-48 is a C10-16 sodium methyl 2-sulfolaurate and disodium 2-sulfolaurate available from Stepan; • Stepan-Mild® L3 is a predominantly C12 reaction product of lauryl alcohol and lactic acid available from Stepan; • SLES is sodium laureth sulfate; • Cola® Teric is an amphoteric sultaine available from Colonial Chemical, Inc.; • Glucopon® […] is an alkyl polyglycoside available from BASF Corporation; • Suga® Nate is a sodium laurylglucosides hydrooxypropylsulfonate available from Colonial Chemicals, Inc; • Lathanol® LAL is a sodium lauryl sulfoacetate available from Stepan. All experiments ran through the SITA Foam Analyzer were as follows: Equipment: • 1) Foaming Apparatus • 2) SITA Software Reagents: • 1) 250 mL of each solution • 2) DI water Preparation: Equipment is prepared by turning the water bath on with ample time to warm up before running tests. Adjust water bath to desired temperature. Quality Assurance: Run a positive and negative control for every experiment. Ensure equipment is clean and free from any residual surfactant chemistry beforehand. In each experiment set, proper differentiation between chemistries can be seen if at least one of the tested chemistries has an “S” curve that depicts a change in the initial foam building and the lathering step. Experimental Procedure: • 1) Prepare water bath • 2) Open the “SITA-foam” software on the computer. […] Foam Generation • i. Series Count (cycles): number of measurement replicates (3-triplicate) • ii. Fill With: Volume of sample liquid (250 mL for each test) • iii. Stir Count: Number of stirrings for each test (70). This is also the number of measurements for each cycle. • iv. Stir Time: Stirring duration of sample (10 sec) • v. Revolution: RPM o the stirrer (900 RMP) • b. Cleansing • i. Click the shower icon to activate the automatic cleansing and rinsing function. The vessel will be cleaned automatically after each cycle of measurements. • ii. Normal cleansing will rinse out the vessel many times. Small cleansing indicates a faster cleansing process. All above parameters can be saved • 5) After setting the parameters, click on “Start Measurement” which is the green “Play” button to proceed with the experiment • 6) After each cycle of experiments automatic cleansing and rinsing is done in preparation for the next cycle of measurements as long as the instrument is connected to tap water or a cleansing liquid reservoir • 7) Each click on the green “Start Measurement” icon opens a new window. The current sample measurement results are all in the same project folder. To rename sample measurement files, right click on the open sample window, and click “save” to rename your sample file • 8) If an error occurs at any point with your sample, the measurement reading can be stopped by clicking the red square “Stop icon” or by pressing the large red button on the machine • 9) Organize the graph generated with the icons in the fourth section of the tool bar: create new plot, add/remove data from plot, change axis properties, and view properties. Click on the “Create new plot” icon to view the plot after the experiment is done or if it is still running. Right click to rename the plot, insert or remove the plot and display the foam buildup, foam decay, or both Establishing initial foaming of the single surfactants is important to establish baselines for comparison for the combinations of various surfactants. To establish the foaming properties of single surfactants, a high amount of each surfactant was analyzed in the SITA Foam Analyzer as described above. The final concentration of each surfactant in solution was 1%. The surfactants tested were sodium lauryl sulfate (SLES), a betaine, Cola® Teric CBS, Glucopon® […], Lathanol® LAL, and Suga® Nate 160NC. […] The compositions were tested for foaming using the SITA Foam Analyzer as described above. […]

Compound	interference with antifungal or antimold capabilities (in words) [1]	interference with preservatives, bacteria (in words) [2]	onset of foam saturation (in words) [3]
CCCCCCCCCCCCOC(=O)CS(=O)(=O)O.[Na] [Lathanol® LAL, sodium lauryl sulfoacetate]	does not interfere with the antifungal or antimold capabilities	does not interfere with the addition of preservatives	performing more slowly
C[N+](C)(C)CC(=O)O [betaine]	–	–	reached saturation at earlier cycles/readings
sodium laurylglucosides hydrooxypropylsulfonate [Suga® Nate 160NC]	–	–	performing more slowly
